From patent US6548043B1, “Measurement of gastric emptying” (Metabolic Solutions, Inc., priority 1999, dated 2003)

Experiment: GMBT, influence of a promotility agent
Format: in vivo, human
Conditions: Cisapride 10 mg the evening before and one half hour before a 350 kcal muffin test meal
Description: An experiment was done to examine the ability of the GMBT to detect changes introduced by the promotility agent, Cisapride. Gastric emptying tests employing a 350 kcal muffin test meal were administered on two occasions within a one-week period. One test was conducted as a control. The other test was conducted after treatment with Cisapride. Cisapride (10 mg) was administered at 10:00 P.M. on the evening prior to the test and one half hour before administration of the muffin test meal. Gastric emptying results for the control meal were delayed relative to the meal administered with Cisapride.

Structure (SMILES): COc1cc(N)c(Cl)cc1C(=O)NC1CCN(CCCOc2ccc(F)cc2)CC1OC (centres unmarked) [Cisapride]
- change in T½ versus control (p=0.05): significant decrease
- change in Tlag versus control (p=0.21): not significant
